Columns and labels:
HCV genotype 1b replicon = assay: HCV replicon assay (luciferase reporter, Zluc cells); format: cell-based; conditions: Huh-7-derived Zluc cells, 72 hours of incubation
[1] = Cytotoxicity evaluation, CellTiter-Blue Cell Viability Assay; format: cell-based; conditions: human, Zluc cells (HCV replicon cells)
Zluc cells = assay: as above; format: cell-based; conditions: read-out: HCV Replicon CC50
[2] = Stability in simulated gastric and intestinal fluids; format: in vitro ADME; conditions: 100 μM, 2 hours at 37° C., percent of the peak area observed at time zero
Experimental: Stability in simulated gastric and intestinal fluids: Simulated gastric and intestinal fluids containing pepsin and pancreatin respectively were prepared according to the U.S. Pharmacopoeia USP291 procedure (www.pharmacopeia.cn/v29240/usp29nf24s0_ris1s126.html). Test compound (final concentration 100 μM) was incubated in duplicate in the appropriate fluid for 2 hours at 37° C. The samples were quenched with 200 μl cold acetonitrile, vortexed for 30 seconds and then centrifuged at 16,100 g for 10 min. The supernatants were analyzed by HPLC on a C-18 column with UV detection at 252 nm. The time 0 samples were prepared by adding SGF or SIF fluid to the quenching solvent followed by the test compound. Stability of the compound was determined by peak area for the test compound after incubation and calculated as percent of the peak area observed at time zero.

Structure (SMILES) | EC50 (HCV genotype 1b replicon; Hepatitis C virus) | CC50 at 72 h [1] | other results
CCOc1nc(N)nc2c1ncn2[C@@H]1O[C@H](COP(=O)(NCc2ccccc2)OCCSC(=O)C(C)(C)COC(C)=O)[C@@H](O)[C@@]1(C)F (single isomer, unassigned) [Compound 101 Diastereomer 1] | ≤ 0.25 µM | ≤ 50 µM | 
CCOc1nc(N)nc2c1ncn2[C@@H]1O[C@H](COP(=O)(NCc2ccccc2)OCCSC(=O)C(C)(C)COC(C)=O)[C@@H](O)[C@@]1(C)F (single isomer, unassigned) [Compound 101 Diastereomer 2] |  |  | EC50 (HCV genotype 1b replicon): ≤ 0.25 µM
CCCCCC(=O)OCC(C)(C)C(=O)SCCOP(=O)(NCc1ccccc1)OC[C@H]1O[C@@H](n2cnc3c(OCC)nc(N)nc32)[C@](C)(F)[C@@H]1O (single isomer, unassigned) [Compound 103 Diastereomer 1] | ≤ 0.25 µM | > 50 µM | 
CCCCCC(=O)OCC(C)(C)C(=O)SCCOP(=O)(NCc1ccccc1)OC[C@H]1O[C@@H](n2cnc3c(OCC)nc(N)nc32)[C@](C)(F)[C@@H]1O (single isomer, unassigned) [Compound 103 Diastereomer 2] |  |  | CC50 (Zluc cells): > 50 µM
CCOc1nc(N)nc2c1ncn2[C@@H]1O[C@H](COP(=O)(NCc2ccccc2)OCCSC(=O)C(C)(C)C(=O)OC(C)C)[C@@H](O)[C@@]1(C)F (single isomer, unassigned) [Compound 105 Diastereomer 1] | ≤ 0.25 µM | > 50 µM | 
CCOc1nc(N)nc2c1ncn2[C@@H]1O[C@H](COP(=O)(NCc2ccccc2)OCCSC(=O)C(C)(C)C(=O)OC(C)C)[C@@H](O)[C@@]1(C)F (single isomer, unassigned) [Compound 105 Diastereomer 2] |  |  | CC50 (Zluc cells): > 50 µM
CCOc1nc(N)nc2c1ncn2[C@@H]1O[C@H](COP(=O)(NCc2ccccc2)OCCSC(=O)C(C)(C)COC(C)=O)[C@@H](O)[C@@]1(C)F (stereo partly drawn) [Compound 101] | ≤ 0.25 µM | ≤ 50 µM | 
CCCC(=O)OCC(C)(C)C(=O)SCCOP(=O)(NCc1ccccc1)OC[C@H]1O[C@@H](n2cnc3c(OCC)nc(N)nc32)[C@](C)(F)[C@@H]1O (stereo partly drawn) [Compound 102] | ≤ 0.25 µM | ≤ 50 µM | 
CCCCCC(=O)OCC(C)(C)C(=O)SCCOP(=O)(NCc1ccccc1)OC[C@H]1O[C@@H](n2cnc3c(OCC)nc(N)nc32)[C@](C)(F)[C@@H]1O (stereo partly drawn) [Compound 103] | ≤ 0.25 µM | > 50 µM | 
CCOc1nc(N)nc2c1ncn2[C@@H]1OC(COP(=O)(NCc2ccccc2)OCCSC(=O)C(C)(C)COC(=O)C(C)C)[C@@H](O)[C@@]1(C)F (stereo partly drawn) [Compound 104] | ≤ 0.25 µM | ≤ 50 µM | 
CCOc1nc(N)nc2c1ncn2[C@@H]1O[C@H](COP(=O)(NCc2ccccc2)OCCSC(=O)C(C)(C)C(=O)OC(C)C)[C@@H](O)[C@@]1(C)F (stereo partly drawn) [Compound 105] | ≤ 0.25 µM | > 50 µM | 
CC(=O)OCC(C)(C)C(=O)SCCOP(=O)(NCc1ccccc1)OCC1O[C@@H](n2cnc3c(=O)[nH]c(N)nc32)[C@](C)(O)[C@@H]1O (stereo partly drawn) [Compound 106] | ≤ 0.25 µM | ≤ 50 µM | 
CCCC(=O)OCC(C)(C)C(=O)SCCOP(=O)(NCc1ccccc1)OCC1O[C@@H](n2cnc3c(=O)[nH]c(N)nc32)[C@](C)(O)[C@@H]1O (stereo partly drawn) [Compound 107] | ≤ 0.25 µM | ≤ 50 µM | Stability SGF ([2]; simulated gastric fluid containing pepsin): +++ (50<+++<100); Stability SIF ([2]; simulated intestinal fluid containing pancreatin): + (+≦25)
CCCCCC(=O)OCC(C)(C)C(=O)SCCOP(=O)(NCc1ccccc1)OCC1O[C@@H](n2cnc3c(=O)[nH]c(N)nc32)[C@](C)(O)[C@@H]1O (stereo partly drawn) [Compound 108] | ≤ 0.25 µM | ≤ 50 µM | 
